Data on 13 molecules can be found in patent US20240218022A1, “ANTI-VISTA MACROCYCLIC PEPTIDES AND COMPOSITIONS” (BRISTOL-MYERS SQUIBB COMPANY, priority 2022, published 2024).

Starred links: 1 amine or outer side, 2 acyl side, 3 side chain; linkers in the order of their positions; H or OH if unused. Positions of bridges follow the written chain, without caps; N, C: chain ends. Non-standard residues stand in square brackets, D forms with d. Residues, ends and D or L forms follow the SMILES beside them. ξ: configuration not given here. Morpholine(3S-CO) = O=C(O)[C@@H]1COCCN1; Phe(3-Me) = Cc1cccc(C[C@H](N)C(=O)O)c1; βAsp = O=C(O)[C@H](CC(=O)[*:2])N[*:1]; Ile(3ξ) = CCC(C)[C@H](N)C(=O)O; NMeL = CN[C@@H](CC(C)C)C(=O)O; Ahp(2) = CCCCC[C@H](N)C(=O)O; NMeNle = CCCC[C@H](NC)C(=O)O; Tle = CC(C)(C)[C@H](N)C(=O)O; Pip = O=C(O)[C@@H]1CCCCN1; NHexGly = CCCCCCNCC(=O)O; Nle = CCCC[C@H](N)C(=O)O; Aun = NCCCCCCCCCCC(=O)O; Aze = O=C(O)[C@@H]1CCN1; AEEA = NCCOCCOCC(=O)O

For the experiment, the target named is T1, mouse VISTA (mVISTA) (Mus musculus, UniProt Q9D659).
T1 construct: expressed in transfected cells; host or cells: Human embryonic kidney 293T cells
T1 sequence (Q9D659 33-308): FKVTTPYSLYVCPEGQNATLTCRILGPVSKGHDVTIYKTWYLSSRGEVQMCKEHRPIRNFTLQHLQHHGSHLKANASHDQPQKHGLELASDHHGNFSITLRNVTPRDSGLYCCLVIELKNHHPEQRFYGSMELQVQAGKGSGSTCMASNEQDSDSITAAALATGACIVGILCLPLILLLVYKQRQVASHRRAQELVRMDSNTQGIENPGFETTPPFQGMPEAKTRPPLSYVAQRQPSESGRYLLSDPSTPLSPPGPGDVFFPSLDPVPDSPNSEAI
In words: Cell-Based Binding High-Content Assay For mVISTA (HC CBA mVISTA). Conditions: read-out: HC CBA mVISTA IC50. In outline:
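Read-out: Alexa 647–streptavidin signal imaged on fixed, Hoechst-stained mVISTA-293T cells, with IC50 taken from a four-parameter logistic curve. Compounds competed with 2 nM biotinylated peptide for 30 min at room temperature, tested under both no-wash and wash (1 h compound, media exchange, 1 h) formats.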
Regarding `CCCCCCN1CC(=O)N[C@@H](Cc2ccc(O)cc2)C(=O)N[C@@H](CCCC)C(=O)N[C@@H](CC(N)=O)C(=O)N[C@@H](CCCNC(=N)N)C(=O)N(C)[C@@H](CCCC)C(=O)N[C@@H](CCCCC)C(=O)N(C)[C@@H](CC(C)C)C(=O)N[C@@H](C(C)(C)C)C(=O)N[C@@H](CO)C(=O)N[C@H](C(=O)N[C@@H](CC(=O)NCCOCCOCC(=O)NCCCCCCCCCCC(=O)O)C(=O)O)CSCC(=O)N[C@@H](Cc2ccccc2)C(=O)N[C@@H](Cc2c[nH]c3ccccc23)C(=O)N[C@@H](CC(=O)O)C1=O` [Example 2179] ({CH2CO}-FWD[NHexGly]Y[Nle]NR[NMeNle][Ahp(2)][NMeL][Tle]SC[βAsp][AEEA][Aun]-OH; thioether N-14), the IC50 (as a rule, the concentration needed to halve the response being measured) is 0.0302 µM.
Take `CCCCCCN1CC(=O)N[C@@H](Cc2ccc(O)cc2)C(=O)N[C@@H](CCCC)C(=O)N[C@@H](CC(N)=O)C(=O)N[C@@H](CCCNC(=N)N)C(=O)N(C)[C@@H](CCCC)C(=O)N[C@@H](CCCCC)C(=O)N(C)[C@@H](CC(C)C)C(=O)N[C@@H](C(C)C)C(=O)N[C@@H](CO)C(=O)N[C@H](C(=O)N[C@@H](CC(=O)NCCOCCOCC(=O)NCCCCCCCCCCC(=O)O)C(=O)O)CSCC(=O)N[C@@H](Cc2ccccc2)C(=O)N[C@@H](Cc2c[nH]c3ccccc23)C(=O)N[C@@H](CC(=O)O)C1=O` [Example 2180] ({CH2CO}-FWD[NHexGly]Y[Nle]NR[NMeNle][Ahp(2)][NMeL]VSC[βAsp][AEEA][Aun]-OH; thioether N-14): the half-inhibitory concentration (IC50) was 0.0185 µM.
Take `CCCCCCN1CC(=O)N[C@@H](Cc2ccc(O)cc2)C(=O)N[C@@H](CCCC)C(=O)N[C@@H](CC(N)=O)C(=O)N[C@@H](CCCNC(=N)N)C(=O)N(C)[C@@H](CCCC)C(=O)N[C@@H](CCCCC)C(=O)N2CCCC[C@H]2C(=O)N[C@@H](C(C)CC)C(=O)N[C@@H](CO)C(=O)N[C@H](C(=O)N[C@@H](CC(=O)NCCOCCOCC(=O)NCCCCCCCCCCC(=O)O)C(=O)O)CSCC(=O)N[C@@H](Cc2ccccc2)C(=O)N[C@@H](Cc2c[nH]c3ccccc23)C(=O)N[C@@H](CC(=O)O)C1=O` (stereo partly shown) [Example 2182] ({CH2CO}-FWD[NHexGly]Y[Nle]NR[NMeNle][Ahp(2)][Pip][Ile(3ξ)]SC[βAsp][AEEA][Aun]-OH; thioether N-14): the half-maximal inhibitory concentration (IC50) was found to be 0.0309 µM.
The value for `CCCCCCN1CC(=O)N[C@@H](Cc2ccc(O)cc2)C(=O)N[C@@H](CCCC)C(=O)N[C@@H](CC(N)=O)C(=O)N[C@@H](CCCNC(=N)N)C(=O)N(C)[C@@H](CCCC)C(=O)N[C@@H](CCCCC)C(=O)N2CC[C@H]2C(=O)N[C@@H](C(C)CC)C(=O)N[C@@H](CO)C(=O)N[C@H](C(=O)N[C@@H](CC(=O)NCCOCCOCC(=O)NCCCCCCCCCCC(=O)O)C(=O)O)CSCC(=O)N[C@@H](Cc2ccccc2)C(=O)N[C@@H](Cc2c[nH]c3ccccc23)C(=O)N[C@@H](CC(=O)O)C1=O` (stereo partly shown) [Example 2183] ({CH2CO}-FWD[NHexGly]Y[Nle]NR[NMeNle][Ahp(2)][Aze][Ile(3ξ)]SC[βAsp][AEEA][Aun]-OH; thioether N-14) was 0.0169 µM; that for `CCCCCCN1CC(=O)N[C@@H](Cc2ccc(O)cc2)C(=O)N[C@@H](CCCC)C(=O)N[C@@H](CC(N)=O)C(=O)N[C@@H](CCCNC(=N)N)C(=O)N(C)[C@@H](CCCC)C(=O)N[C@@H](CCCCC)C(=O)N2CC[C@H]2C(=O)N[C@@H](C(C)C)C(=O)N[C@@H](CO)C(=O)N[C@H](C(=O)N[C@@H](CC(=O)NCCOCCOCC(=O)NCCCCCCCCCCC(=O)O)C(=O)O)CSCC(=O)N[C@@H](Cc2ccccc2)C(=O)N[C@@H](Cc2c[nH]c3ccccc23)C(=O)N[C@@H](CC(=O)O)C1=O` [Example 2184] ({CH2CO}-FWD[NHexGly]Y[Nle]NR[NMeNle][Ahp(2)][Aze]VSC[βAsp][AEEA][Aun]-OH; thioether N-14) was 0.0231 µM.
The value for `CCCCCCN1CC(=O)N[C@@H](Cc2ccc(O)cc2)C(=O)N[C@@H](CCCC)C(=O)N[C@@H](CC(N)=O)C(=O)N[C@@H](CCCNC(=N)N)C(=O)N(C)[C@@H](CCCC)C(=O)N[C@@H](CCCCC)C(=O)N2CCCC[C@H]2C(=O)N[C@@H](Cc2ccccc2)C(=O)N[C@@H](CO)C(=O)N[C@H](C(=O)N[C@@H](CC(=O)NCCOCCOCC(=O)NCCCCCCCCCCC(=O)O)C(=O)O)CSCC(=O)N[C@@H](Cc2ccccc2)C(=O)N[C@@H](Cc2c[nH]c3ccccc23)C(=O)N[C@@H](CC(=O)O)C1=O` [Example 2185] ({CH2CO}-FWD[NHexGly]Y[Nle]NR[NMeNle][Ahp(2)][Pip]FSC[βAsp][AEEA][Aun]-OH; thioether N-14) was 0.0501 µM; that for `CCCCCCN1CC(=O)N[C@@H](Cc2ccc(O)cc2)C(=O)N[C@@H](CCCC)C(=O)N[C@@H](CC(N)=O)C(=O)N[C@@H](CCCNC(=N)N)C(=O)N(C)[C@@H](CCCC)C(=O)N[C@@H](CCCCC)C(=O)N2CCCC[C@H]2C(=O)N[C@@H](C(C)C)C(=O)N[C@@H](CO)C(=O)N[C@H](C(=O)N[C@@H](CC(=O)NCCOCCOCC(=O)NCCCCCCCCCCC(=O)O)C(=O)O)CSCC(=O)N[C@@H](Cc2ccccc2)C(=O)N[C@@H](Cc2c[nH]c3ccccc23)C(=O)N[C@@H](CC(=O)O)C1=O` [Example 2186] ({CH2CO}-FWD[NHexGly]Y[Nle]NR[NMeNle][Ahp(2)][Pip]VSC[βAsp][AEEA][Aun]-OH; thioether N-14) was 0.0244 µM; that for `CCCCCCN1CC(=O)N[C@@H](Cc2ccc(O)cc2)C(=O)N[C@@H](CCCC)C(=O)N[C@@H](CC(N)=O)C(=O)N[C@@H](CCCNC(=N)N)C(=O)N(C)[C@@H](CCCC)C(=O)N[C@@H](CCCCC)C(=O)N2CC[C@H]2C(=O)N[C@@H](C(C)(C)C)C(=O)N[C@@H](CO)C(=O)N[C@H](C(=O)N[C@@H](CC(=O)NCCOCCOCC(=O)NCCCCCCCCCCC(=O)O)C(=O)O)CSCC(=O)N[C@@H](Cc2ccccc2)C(=O)N[C@@H](Cc2c[nH]c3ccccc23)C(=O)N[C@@H](CC(=O)O)C1=O` [Example 2187] ({CH2CO}-FWD[NHexGly]Y[Nle]NR[NMeNle][Ahp(2)][Aze][Tle]SC[βAsp][AEEA][Aun]-OH; thioether N-14) was 0.0133 µM.
Consider `CCCCCCN1CC(=O)N[C@@H](Cc2ccc(O)cc2)C(=O)N[C@@H](CCCC)C(=O)N[C@@H](CC(N)=O)C(=O)N[C@@H](CCCNC(=N)N)C(=O)N(C)[C@@H](CCCC)C(=O)N[C@@H](CCCCC)C(=O)N2CC[C@H]2C(=O)N[C@@H](Cc2ccccc2)C(=O)N[C@@H](CO)C(=O)N[C@H](C(=O)N[C@@H](CC(=O)NCCOCCOCC(=O)NCCCCCCCCCCC(=O)O)C(=O)O)CSCC(=O)N[C@@H](Cc2ccccc2)C(=O)N[C@@H](Cc2c[nH]c3ccccc23)C(=O)N[C@@H](CC(=O)O)C1=O` [Example 2188] ({CH2CO}-FWD[NHexGly]Y[Nle]NR[NMeNle][Ahp(2)][Aze]FSC[βAsp][AEEA][Aun]-OH; thioether N-14), for which the half-inhibitory concentration (IC50) amounted to 0.0473 µM.
The value for `CCCCCCN1CC(=O)N[C@@H](Cc2ccc(O)cc2)C(=O)N[C@@H](CCCC)C(=O)N[C@@H](CC(N)=O)C(=O)N[C@@H](CCCNC(=N)N)C(=O)N(C)[C@@H](CCCC)C(=O)N[C@@H](CCCCC)C(=O)N2CCC[C@H]2C(=O)N[C@@H](C(C)(C)C)C(=O)N[C@@H](CO)C(=O)N[C@H](C(=O)N[C@@H](CC(=O)NCCOCCOCC(=O)NCCCCCCCCCCC(=O)O)C(=O)O)CSCC(=O)N[C@@H](Cc2ccccc2)C(=O)N[C@@H](Cc2cccc(C)c2)C(=O)N[C@@H](CC(=O)O)C1=O` [Example 2189] ({CH2CO}-F[Phe(3-Me)]D[NHexGly]Y[Nle]NR[NMeNle][Ahp(2)]P[Tle]SC[βAsp][AEEA][Aun]-OH; thioether N-14) was 0.029 µM; that for `CCCCCCN1CC(=O)N[C@@H](Cc2ccc(O)cc2)C(=O)N[C@@H](CCCC)C(=O)N[C@@H](CC(N)=O)C(=O)N[C@@H](CCCNC(=N)N)C(=O)N(C)[C@@H](CCCC)C(=O)N[C@@H](CCCCC)C(=O)N2CCC[C@H]2C(=O)N[C@@H](C(C)(C)C)C(=O)N[C@@H](CO)C(=O)N[C@H](C(=O)N[C@@H](CC(=O)NCCOCCOCC(=O)NCCCCCCCCCCC(=O)O)C(=O)O)CSCC(=O)N[C@@H](Cc2ccccc2)C(=O)N[C@@H](Cc2ccc(O)cc2)C(=O)N[C@@H](CC(=O)O)C1=O` [Example 2190] ({CH2CO}-FYD[NHexGly]Y[Nle]NR[NMeNle][Ahp(2)]P[Tle]SC[βAsp][AEEA][Aun]-OH; thioether N-14) was 0.0244 µM.
`CCCCCCN1CC(=O)N[C@@H](Cc2ccc(O)cc2)C(=O)N[C@@H](CCCC)C(=O)N[C@@H](CC(N)=O)C(=O)N[C@@H](CCCNC(=N)N)C(=O)N(C)[C@@H](CCCC)C(=O)N[C@@H](CCCCC)C(=O)N2CCC[C@H]2C(=O)N[C@@H](C(C)(C)C)C(=O)N[C@@H](CO)C(=O)N[C@H](C(=O)N[C@@H](CC(=O)NCCOCCOCC(=O)NCCCCCCCCCCC(=O)O)C(=O)O)CSCC(=O)N[C@@H](Cc2ccccc2)C(=O)N[C@@H](Cc2c[nH]c3ccccc23)C(=O)N[C@@H](CC(=O)O)C1=O` [Example 2191] ({CH2CO}-FWD[NHexGly]Y[Nle]NR[NMeNle][Ahp(2)]P[Tle]SC[βAsp][AEEA][Aun]-OH; thioether N-14): the IC50 was 0.0197 µM.
Next, `CCCCCCN1CC(=O)N[C@@H](Cc2ccc(O)cc2)C(=O)N[C@@H](CCCC)C(=O)N[C@@H](CC(N)=O)C(=O)N[C@@H](CCCNC(=N)N)C(=O)N(C)[C@@H](CCCC)C(=O)N[C@@H](CCCCC)C(=O)N2CCOC[C@H]2C(=O)N[C@@H](C(C)(C)C)C(=O)N[C@@H](CO)C(=O)N[C@H](C(=O)N[C@@H](CC(=O)NCCOCCOCC(=O)NCCCCCCCCCCC(=O)O)C(=O)O)CSCC(=O)N[C@@H](Cc2ccccc2)C(=O)N[C@@H](Cc2c[nH]c3ccccc23)C(=O)N[C@@H](CC(=O)O)C1=O` [Example 2192] ({CH2CO}-FWD[NHexGly]Y[Nle]NR[NMeNle][Ahp(2)][Morpholine(3S-CO)][Tle]SC[βAsp][AEEA][Aun]-OH; thioether N-14): 0.0186 µM.
